In series [1] the test system is stented rat abdominal aorta (neointimal formation). Put plainly: Rat abdominal aorta stenting model, histomorphometry and histology after 28 days. It counts as in vivo, Wistar rats. As to the method:
Twenty-eight male Wistar rats (Harlan, Horst, Netherlands) weighing 450 to 520 grams were anesthetized with O2, N2O and isofluorane (Abbot B.V., Hoofddorp, Netherlands). A pre-mounted 2.5×9 mm BeStentTM 2 (Medtronic-Bakken Research, Maastricht, the Netherlands) was implanted in the abdominal aorta as previously described, or a sham operation was performed.^35 Subsequently, an osmotic minipump with a pumping rate of 0.25 μl/hour, lasting for 28 days (Model 2004, Alzet, Charles River Nederland, Maastricht, Netherlands), was implanted subcutaneously for drug delivery via a catheter in the jugular vein. […] rats received angiotensin-(1-7) (Bachem, Weil am Rhein, Germany) (24 μg/kg/hour) (n=7) or saline (0.25 μl/hour) (n=10). Sham-operated rats received saline infusion (n=6). […] At this concentration, Ang-(1-7) binds to the Mas receptor and has subsequent functional effects. Five rats died peri-operatively due to rupture of the aorta. After 28 days, the animals were anesthetized and heparinized with 500 IU intravenously (Leo Pharma B.V., Breda, Netherlands). The abdominal aortas were subsequently harvested, fixed, embedded in methylmetacrylate, sectioned and stained for histological analysis. The endothelial function was tested in isolated thoracic aortic rings. Histomorphometrical analysis was performed on elastica van Gieson-stained sections by measurements of the proximal, middle and distal parts of each stent. To assess neointimal formation, areas within the external elastic lamina (EEL), internal elastic lamina (IEL) and lumen were measured by using digital morphometry. The neointimal area, media area, lumen area and the percentage of stenosis were calculated. The injury and inflammation scores were assessed as described by Schwartz et al. and Kornowski et al. Briefly, each strut was assigned a nominal score from 0 to 3 dependent upon the severity of the injury or inflammation. The average score is calculated by dividing the sum of scores by the number of struts. Total cell density and polymorphonuclear leukocyte density were determined in hematoxylin-eosin stained sections at ×400 magnification and expressed as ×100/mm^2. To assess a single measurement for each stent, the mean values of the proximal, middle and distal parts were calculated. Data are expressed as mean value±standard error of the mean (SEM). Statistical analysis between groups was performed by a student's t-test. Differences in dose-response curves between groups were tested by ANOVA for repeated measures using Greenhouse-Geisser correction for asphericity. Values of p=0.05 were considered statistically significant. For statistical analysis, SPSS software (Chicago, USA) was used.

Series [2] has as its system thoracic aortic rings. The experiment in a line: Organ bath studies with isolated thoracic aortic rings (endothelial function) from stented, treated rats. Format: in vivo, Wistar rats. As to the method: Twenty-eight male Wistar rats (Harlan, Horst, Netherlands) weighing 450 to 520 grams were anesthetized with O2, N2O and isofluorane (Abbot B.V., Hoofddorp, Netherlands). A pre-mounted 2.5×9 mm BeStentTM 2 (Medtronic-Bakken Research, Maastricht, the Netherlands) was implanted in the abdominal aorta as previously described, or a sham operation was performed.^35 Subsequently, an osmotic minipump with a pumping rate of 0.25 μl/hour, lasting for 28 days (Model 2004, Alzet, Charles River Nederland, Maastricht, Netherlands), was implanted subcutaneously for drug delivery via a catheter in the jugular vein. […] rats received angiotensin-(1-7) (Bachem, Weil am Rhein, Germany) (24 μg/kg/hour) (n=7) or saline (0.25 μl/hour) (n=10). Sham-operated rats received saline infusion (n=6). […] At this concentration, Ang-(1-7) binds to the Mas receptor and has subsequent functional effects. Five rats died peri-operatively due to rupture of the aorta. After 28 days, the animals were anesthetized and heparinized with 500 IU intravenously (Leo Pharma B.V., Breda, Netherlands). The abdominal aortas were subsequently harvested, fixed, embedded in methylmetacrylate, sectioned and stained for histological analysis. […] The endothelium-dependant vasodilatation was assessed by a cumulative dose of meatcholine (10 nM to 10 mM). […] Data are expressed as mean value±standard error of the mean (SEM). […]

Series [3] in a line: in vivo. The note with it: male, Wistar, rat, iv, 24 ug/kg/hour. On the procedure: Twenty-eight male Wistar rats (Harlan, Horst, Netherlands) weighing 450 to 520 grams were anesthetized with O2, N2O and isofluorane (Abbot B.V., Hoofddorp, Netherlands). A pre-mounted 2.5×9 mm BeStent™ 2 (Medtronic-Bakken Research, Maastricht, the Netherlands) was implanted in the abdominal aorta as previously described, or a sham operation was performed.^35 Subsequently, an osmotic minipump with a pumping rate of 0.25 μl/hour, lasting for 28 days (Model 2004, Alzet, Charles River Nederland, Maastricht, Netherlands), was implanted subcutaneously for drug delivery via a catheter in the jugular vein. Stented rats received angiotensin-(1-7) (Bachem, Weil am Rhein, Germany) (24 μg/kg/hour) (n=7) or saline (0.25 μl/hour) (n=10). Sham-operated rats received saline infusion (n=6). […] At this concentration, Ang-(1-7) binds to the Mas receptor and has subsequent functional effects. Five rats died peri-operatively due to rupture of the aorta.

Setting [4] is: stented rats, 24 μg/kg/hour, mean ± SEM.

Entries after “also recorded” stand apart in the source; their conditions may differ.

On to `CC[C@H](C)[C@H](NC(=O)[C@H](Cc1ccc(O)cc1)NC(=O)[C@@H](NC(=O)[C@H](CCCNC(=N)N)NC(=O)[C@@H](N)CC(=O)O)C(C)C)C(=O)N[C@@H](Cc1c[nH]cn1)C(=O)N1CCC[C@H]1C(=O)O` [Ang-(1-7), angiotensin-(1-7)], for which, in series [1] (setting [4]), the “Neointimal Area” value turned out to be 0.51 ± 0.05 mm^2, the “Neointimal Thickness” value was 112 ± 8 μm and the “Percentage Stenosis” value turned out to be 10.4 ± 1.0%. For the same molecule, in series [1] (vs saline control), the “IEL Area, change with treatment” value was −2%; the “Mean Injury Score, change with treatment” value was 18.2%; the “Media Area, change with treatment” value was −12.8%; the “Neointimal Area, change with treatment” value was −27.1%. In series [1] (vs saline control), the “Neointimal Thickness, change with treatment” value is reported as −20.6% and the “Percentage Stenosis, change with treatment” value is −25.7%. For the same molecule, in series [1] (vs saline-treated stented rats), the “Decrease in neointimal area” value turned out to be 27%, the “Decrease in neointimal thickness” value was 21% and the “Decrease in percentage stenosis” value was determined as 26%. In addition, in series [2] (sodium nitrite 10 mM, phenylephrine precontracted rings, vs sham and control), the “Relaxation on endothelium-independent vasodilator sodium nitrite” value is listed as “equal; also recorded: No differences”. In series [2] (thoracic aortic rings, phenylephrine 1 mM, mean ± SEM), this molecule came in with a Contraction on phenylephrine of 254±29 μm. The same molecule yielded a level at time molar in series [3] of approximately 0.918 nM.
